For data set [1], the system named is Toxoplasma gondii tachyzoites (RH88). Put plainly: microbe, parasite or virus in culture. Conditions: read-out: TgRH88 IC50 (mean ± SEM). The method, then: For the initial fixed concentration screening and IC50 determination in T. gondii, we utilized a luciferase expressing RH88 strain to quantify the number of live, actively replicating parasites. To construct this strain, the Fluc and DHFR selection markers had been integrated into the UPRT locus through CRISPR/Cas9, rendering the strain pyrimethamine-resistant ([6]). Screening was performed using a pure compound library provided by the University of Oklahoma Natural Products Discovery Group, containing 683 compounds derived primarily from fungal secondary metabolites. For purposes of testing, HFFs were grown in 96-well microtiter plates in preparation. The media we used to grow cells was referred to a D10 media that was composed of Dulbecco's Modified Eagle Medium (Thermo Fisher; Cat # 11995073), 10% Fetal Bovine Serum (Sigma-Aldrich; Cat # 12306C), 1 × non-essential amino acids (100 ×; Thermo Fisher; Cat # 11140050), HEPES buffer (1M; Fisher Scientific; Cat # SH3023701) at 0.4M, and 10 mg/mL of gentamicin (Fisher Scientific; Cat # 15710072). Compounds were then diluted to 10 µM in 100 µL of fresh D10 media. Each plate utilized artemisinin and DMSO vehicle controls. To each well, 2,500 parasites per 100 µL of D10 media were added. Three technical replicates were then performed. After 48 hours, 160 µL of the D10 media was removed, and plates were subjected to freezing then thawing. Following this, 10 µL of the passive lysis buffer (Promega; Cat# E1910) was added and incubated at room temperature for 15 min. Finally, 100 µL of luciferase assay reagent (Promega; Cat# E1501) was added to each well, and luminescence was measured using a PHERAstar FSX plate reader (BMG Labtech, Germany).
(§1) For IC50 and cytotoxicity determination, we used 384 plates with confluent HFF cells. Compounds were serially diluted 3-fold with a starting concentration of 20 µM. Samples were further diluted by adding an equal volume of media containing 700 parasites. DMSO and […] of KAE609 were used as negative and positive controls, respectively. Assays were performed with a total of three technical replicates and two biological replicates. After incubation for 48 hours, 50 µL of media was removed, and plates were subjected to freezing and thawing. Following this, 10 µL of passive lysis buffer was added and plates were incubated for 15 min at room temperature. Finally, 30 µL of luciferase reagent was added, and the luminescence was measured immediately using a PHERAstar FSX. In parallel, cytotoxicity dose response was performed in the same fashion without the addition of parasites. Cell counting kit-8 reagent (GlpBio; Cat # GK10001) was added at a 1:10 dilution and incubated at 37°C, 5% CO2 for 1 hour. The absorbance was then measured at 450 nm using a PHERAstar FSX. The data management system CDD vault was used for curve fitting and IC50 determination.

Data set [2] has as its system human foreskin fibroblasts (HFFs). As to the kind of experiment: HFF cytotoxicity dose response (cell counting kit-8). The note with it: for IC50: read-out: HFF IC50 (mean ± SEM); for toxicity to HFFs: highest concentrations tested (20 µM). The method, then: as §1, with “Samples” for “For IC50 and cytotoxicity determination, we used 384 plates with confluent HFF cells. Compounds were serially diluted 3-fold with a starting concentration of 20 µM. Samples”
A general note: Formazan colour is commonly taken as a measure of viable cells.

The subject of data set [3] is Plasmodium falciparum (Dd2). The note with it: read-out: PfDd2 IC50, cited from earlier work.
Data set [4] is described as follows: HFF cytotoxicity dose response (cell counting kit-8). Conditions: human, confluent human foreskin fibroblast (HFF) cells. The method, then:
as §1, with “Samples” for “For IC50 and cytotoxicity determination, we used 384 plates with confluent HFF cells. Compounds were serially diluted 3-fold with a starting concentration of 20 µM. Samples”

[5] abbreviates: mean of duplicate or triplicate experiments.
[6] abbreviates: luciferase expressing RH88 in HFF, 48 hours.
[7] abbreviates: cytotoxicity, no parasites, 48 hours, CCK-8.

Read-outs that look alike come from different tables or passages of the source. Non-standard residues stand in square brackets, D forms with d. Residues, ends and D or L forms follow the SMILES beside them. *: point of attachment. X1 = CC(C)C[C@@H](CN1CCC[N+]2=C1CCC2)N*; X2 = CC(C)C[C@@H](C[N+]1=C2CCCN2CCC1)N*; Pip = O=C(O)[C@@H]1CCCCN1; Iva = CC[C@](C)(N)C(=O)O; Aib = CC(C)(N)C(=O)O; βAla = NCCC(=O)O Some results are limits rather than exact numbers.

Turning to `C[C@H]1Cc2c([nH]c3cc(Cl)c(F)cc23)[C@@]2(N1)C(=O)Nc1ccc(Cl)cc12` [KAE609, reference compound], the half-maximal inhibitory concentration (IC50) is 440 ± 34.8 nM in data set [1] (Toxoplasma gondii, 48 h) and more than 20000 nM in data set [2] (Homo sapiens, Fibroblast, 48 h).

As to `CN(C)c1ccc2nc3ccc(=[N+](C)C)cc-3sc2c1` [Methylene blue, reference compound], the IC50 is 258 ± 0.95 nM in data set [1] (Toxoplasma gondii, 48 h) and more than 20000 nM in data set [2] (Homo sapiens, Fibroblast, 48 h).

On to `CCC(=O)CCCCCC1NC(=O)C2CCCCN2C(=O)C(C(C)C)NC(=O)C(Cc2cn(OC)c3ccccc23)NC1=O` (centres unmarked) [compound 120251, Apicidin C], for which the IC50 is 25.9 ± 10.2 nM in data set [1] (Toxoplasma gondii, 48 h); 236 nM in data set [3] (setting [5]); more than 20000 nM in data set [2] (Homo sapiens, Fibroblast, 48 h).

As for `C=C1Cc2ccc3[nH]c4c(c3c2[C@H]2[C@@H]1C[C@@H]2C(C)(C)O)C[C@@H]1CC[C@@]2(O)C3=C[C@@H](O)[C@@H](C(=C)C)O[C@H]3CC[C@]2(C)[C@@]41C` [compound 120253, Secopenitrem D], the IC50 is 14100 nM in data set [1] (setting [6]) and more than 20000 nM in data set [2] (setting [7]).

Regarding `COC(=O)[C@@]12Oc3ccc(-c4ccc5c(c4O)C(O)C4=C(O)C[C@H](C)[C@@H](O)[C@]4(C(=O)OC)O5)c(O)c3C(=O)C1=C(O)C[C@H](C)[C@H]2O` (some centres unmarked) [compound 130002, Secalonic acid D], the IC50 is 334 ± 103 nM in data set [1] (Toxoplasma gondii, 48 h); 1300 nM in data set [3] (setting [5]); 3730 nM in data set [2] (Homo sapiens, Fibroblast, 48 h).

As for `CC(O)[C@@]12SS[C@]3(C(=O)N1C)[C@@H](O)C1([C@@]45c6ccccc6N[C@@H]4N4C(=O)[C@]6(C(C)O)SS[C@]4(C(=O)N6C)[C@H]5O)c4ccccc4N[C@@H]1N3C2=O` (some centres unmarked) [compound 130016, Verticillin D], the IC50 in data set [1] (setting [6]) turned out to be 36.2 ± 1.8 nM; in data set [2] (setting [7]), 943.2 ± 6.4 nM.

Take `C=C[C@H]1C[C@@H](C)C[C@@H](C)[C@@H]1c1c(O)ccn(O)c1=O` [compound 130034, Pyridoxatin]: the IC50 in data set [1] (setting [6]) was more than 8560 nM; in data set [2] (setting [7]), more than 20000 nM.

On to `COC(=O)C12Oc3c(c(O)cc4c3C3C=CC5(C4)C(=O)c4cc(C)cc(O)c4C(O)=C5C3=O)C(O)=C1C(=O)CCC2O` (centres unmarked) [compound 130143, Xanthoquinodin B2], for which the IC50 is 131 ± 36.5 nM in data set [1] (Toxoplasma gondii, 48 h); 1010 nM in data set [3] (setting [5]); more than 20000 nM in data set [2] (Homo sapiens, Fibroblast, 48 h).

For the molecule `CC[C@](C)(NC(=O)[C@H](CC(C)C)NC(=O)[C@H](C)NC(=O)C(C)(C)NC(=O)[C@@H]1CCCCN1C(=O)C(C)(C)NC(=O)C(C)(C)NC(=O)CNC(=O)CCNC(=O)[C@H](CC(C)C)NC(=O)C(C)(C)NC(=O)C(C)(C)NC(=O)[C@@H]1CCCCN1C(=O)C(C)(C)NC(=O)[C@@H]1CCCCN1C(C)=O)C(=O)N[C@@H](CC(C)C)CN1CCC[N+]2=C1CCC2` [compound 150003, Efrapeptin F] (Ac-[Pip][Aib][Pip][Aib][Aib]L[βAla]G[Aib][Aib][Pip][Aib]AL[Iva]-X1; N-terminus and C-terminus assumed), the IC50 in data set [1] (setting [6]) is 55.5 ± 11.8 nM; in data set [3] (ref Lee et al. ([8])), 399 nM; in data set [2] (setting [7]), more than 20000 nM.

Consider `CC[C@](C)(NC(=O)[C@H](CC(C)C)NC(=O)[C@H](C)NC(=O)C(C)(C)NC(=O)[C@@H]1CCCCN1C(=O)C(C)(C)NC(=O)C(C)(C)NC(=O)CNC(=O)CCNC(=O)[C@H](CC(C)C)NC(=O)C(C)(C)NC(=O)C(C)(C)NC(=O)[C@@H]1CCCCN1C(=O)C(C)(C)NC(=O)[C@@H]1CCCCN1C(C)=O)C(=O)N[C@@H](CC(C)C)C[N+]1=C2CCCN2CCC1` [compound 150003, Efrapeptin F] (Ac-[Pip][Aib][Pip][Aib][Aib]L[βAla]G[Aib][Aib][Pip][Aib]AL[Iva]-X2), for which, in data set [2], the “toxicity to HFFs” value is on record as “no toxicity”.

For the molecule `CC[C@](C)(NC(=O)[C@H](CC(C)C)NC(=O)[C@H](C)NC(=O)C(C)(C)NC(=O)[C@@H]1CCCCN1C(=O)C(C)(C)NC(=O)C(C)(C)NC(=O)CNC(=O)CCNC(=O)[C@H](CC(C)C)NC(=O)C(C)(C)NC(=O)[C@](C)(CC)NC(=O)[C@@H]1CCCCN1C(=O)C(C)(C)NC(=O)[C@@H]1CCCCN1C(C)=O)C(=O)N[C@@H](CC(C)C)CN1CCC[N+]2=C1CCC2` [compound 150004, Efrapeptin G] (Ac-[Pip][Aib][Pip][Iva][Aib]L[βAla]G[Aib][Aib][Pip][Aib]AL[Iva]-X1; N-terminus and C-terminus assumed), the IC50 in data set [1] (setting [6]) was 12.3 ± 2.3 nM; in data set [3] (ref Lee et al. ([8])), 460 nM; in data set [2] (setting [7]), more than 20000 nM.

Take `CC[C@](C)(NC(=O)[C@H](CC(C)C)NC(=O)[C@H](C)NC(=O)C(C)(C)NC(=O)[C@@H]1CCCCN1C(=O)C(C)(C)NC(=O)C(C)(C)NC(=O)CNC(=O)CCNC(=O)[C@H](CC(C)C)NC(=O)C(C)(C)NC(=O)[C@](C)(CC)NC(=O)[C@@H]1CCCCN1C(=O)C(C)(C)NC(=O)[C@@H]1CCCCN1C(C)=O)C(=O)N[C@@H](CC(C)C)C[N+]1=C2CCCN2CCC1` [compound 150004, Efrapeptin G] (Ac-[Pip][Aib][Pip][Iva][Aib]L[βAla]G[Aib][Aib][Pip][Aib]AL[Iva]-X2): the “toxicity to HFFs” value in data set [2] was “no toxicity”.

In the case of `CCCCC[C@@H](O)C[C@@H](O)C[C@@H]1Cc2cc3cc(OC)c(-c4c(OC)cc5cc6c(c(O)c5c4O)C(=O)O[C@H](C[C@H](O)C[C@H](O)CCCCC)C6)c(O)c3c(O)c2C(=O)O1` [compound 150020, Dinapinone A], the IC50 in data set [1] (setting [6]) is 3170 nM; in data set [2] (setting [7]) it was 6670 nM.

As for `COC(=O)C1=CC(O)C(O)C(O)C1N1CC(O)C(OC(C)=O)C1Cc1ccc(OC)cc1` (centres unmarked) [compound 150029], the IC50 in data set [1] (Toxoplasma gondii, 48 h) was 585 ± 14.6 nM; in data set [2] (Homo sapiens, Fibroblast, 48 h) it was 28500 nM. This molecule also had an IC50 at 48 h in data set [4] of 28500 ± 2400 nM.

With `COC(=O)c1c(Sc2c(O)cc(OC)c(C(=O)c3c(O)cc(C)cc3O)c2C(=O)OC)c(O)cc(OC)c1C(=O)c1c(O)cc(C)cc1O` [compound 150052, Polluxochrin], the IC50 in data set [1] (Toxoplasma gondii, 48 h) is 801 ± 163 nM; in data set [2] (Homo sapiens, Fibroblast, 48 h), more than 60000 nM.

For the molecule `C[C@H]1CCC/C=C/[C@@H]2C[C@H](O)C[C@H]2[C@H](O)/C=C/C(=O)O1` [compound 160010, Brefeldin A], the IC50 in data set [1] (Toxoplasma gondii, 48 h) amounted to 243 ± 78.4 nM; in data set [2] (Homo sapiens, Fibroblast, 48 h), 6430 nM.

Regarding `CN1C(=O)[C@]2(Cc3cn([C@]45C[C@@]67SS[C@@](CO)(C(=O)N6[C@H]4Nc4ccccc45)N(C)C7=O)c4ccccc34)SS[C@@]1(CO)C(=O)N2C` [compound 170066, Chetomin], the IC50 in data set [1] (Toxoplasma gondii, 48 h) is 62.2 ± 3.75 nM; in data set [2] (Homo sapiens, Fibroblast, 48 h), 369 ± 72.6 nM.

For `COc1c(C[C@@H](C)OC(=O)Oc2ccc(O)cc2)c2c3c(C[C@@H](C)OC(=O)c4ccccc4)c(OC)c(=O)c4c(O)cc(OC)c(c5c(OC)cc(O)c(c1=O)c52)c43` [compound 170068, Calphostin C], the concentration for half-maximal inhibition (IC50) in data set [1] (Toxoplasma gondii, 48 h) is 1140 nM; in data set [3] (setting [5]) it was 410 nM; in data set [2] (Homo sapiens, Fibroblast, 48 h), more than 20000 nM.

In the case of `CC1=C[C@@H]2/C=C(\C)CC[C@H](O)[C@H](O)/C=C/C(=O)[C@]23C(=O)N[C@@H](CC(C)C)[C@@H]3[C@@H]1C` [compound 170081, Aspochalasin D], the IC50 in data set [1] (Toxoplasma gondii, 48 h) came out at 1270 nM; in data set [2] (Homo sapiens, Fibroblast, 48 h) it was 30300 nM.

With “Alpha-cyclopiazonic acid [compound 170027]”, the IC50 is 1130 nM in data set [1] (setting [6]) and more than 40000 nM in data set [2] (setting [7]).

PF-1140 [compound 120159]: the IC50 was 3290 nM in data set [1] (setting [6]) and more than 20000 nM in data set [2] (setting [7]).

Consider Verticillin [compound 130038], for which the IC50 is 79 ± 29.3 nM in data set [1] (setting [6]), 501 nM in data set [3] (setting [5]) and 82.4 ± 41.8 nM in data set [2] (setting [7]).

As a reminder, the IC50 is the concentration at which inhibition is half-maximal.

The values are drawn from paper PMC10986609, “Identification of fungal natural products with potent inhibition in Toxoplasma gondii” (Microbiology Spectrum, 2024).
